How the values were obtained:
[1] = test system: intracellular staphylococci; settings: local administration of a pharmaceutical composition comprising rifampin; cited from earlier work
[2] = Wiping test for adherence of the coating (glass substrate, polyester cloth); assay type: physicochemical; settings: fosfomycin-Ca about 430 μg/cm^2, rifampicin about 60 μg/cm^2, wiped with polyester cloth
Description: A substrate, here a glass substrate, was coated at first with a fosfomycin-Ca monohydrate suspension. Subsequently, a part of the glass substrate coated with fosfomycin-Ca was partially coated with rifampicin.
The completely coated substrate was then wiped using a polyester cloth.

adherence of coating after wiping [2]	Structure (SMILES)	elimination of intracellular staphylococci [1]
–	CO[C@H]1/C=C/O[C@@]2(C)Oc3c(C)c(O)c4c(O)c(c(/C=N/N5CCN(C)CC5)c(O)c4c3C2=O)NC(=O)/C(C)=C\C=C\[C@H](C)[C@H](O)[C@@H](C)[C@@H](O)[C@@H](C)[C@H](OC(C)=O)[C@@H]1C [rifampin]	reduced within three days
largely removed	C[C@@H]1O[C@@H]1P(=O)([O-])[O-].O.[Ca+2] [fosfomycin-Ca, fosfomycin-calcium-monohydrate]	–
